Structures can show the parent of a compound that is named as a salt.
How the values were obtained:
TLR2 [1] = molecular target: T1, TLR2 (Mus musculus, UniProt Q9QUN7); assay: TLR2 functional assay, cytokine release from RAW 264.7 mouse macrophage cell line; type: cell-based; details: average of all runs
T1 construct: endogenous in cells; host or cells: RAW 264.7
Description: Cells of the immune system respond to TLR agonists in part by secreting cytokines. Functional assays for TLR2 agonists measure cytokine release from purified immune cells or immortalized cell lines derived from immune cells. Cytokine release is measured by standard ELISA approaches or multiplexed analysis using the Meso Scale Discovery (MSD) platform.
Purified primary human peripheral blood mononuclear cells or RAW 264.7 mouse macrophage cell line cells are plated at approximately 40,000 cells per well. Cells are treated with agonist compounds and assays 6-24 hours post-treatment for cytokines released into the cell culture media.
Following assay measurements utilizing either HEK-Blue detection or cytokine release, all data is analyzed with the GraphPad Prism8 statistical package to determine EC50, binding and activity metrics for the TLR2 modulators.
Numerous cell lines derived from various cell types can respond to TLR2 agonists with stereotyped cytokine and chemokine secretion. In particular, cell lines derived from macrophages respond robustly to TLR2 agonists by secreting a wide array of cytokines, including (but not limited to) TNF-alpha, IL-1, IL-10 and IL-12. The human monocytic cell line THP-1, the mouse macrophage line RAW-264.7, and the rat macrophage line NR8383 were used. For each assay, the respective cell lines were plated into 96-well plates overnight and then treated the following day with various TLR2-engaging compounds at varying concentrations. The next day, supernatants were collected and assayed by multiplex immunodetection for cytokines released (MSD detection kits for respective species).
Data provided in Table 5 is generated using protocols described in Example 45 and 46.

TLR2 [2] = molecular target: TLR2 (Homo sapiens, UniProt O60603); assay: TLR2 agonist screening assay, HEK-Blue TLR2 reporter cell line (NF-kB-driven SEAP, absorbance at 600 nm); type: cell-based; design: host or cells: HEK-293 (HEK-Blue TLR2 reporter cell line); details: HEK-Blue TLR2 reporter cells, agonist mode
Chain of TLR2 (Homo sapiens, UniProt O60603) (O60603 21-784): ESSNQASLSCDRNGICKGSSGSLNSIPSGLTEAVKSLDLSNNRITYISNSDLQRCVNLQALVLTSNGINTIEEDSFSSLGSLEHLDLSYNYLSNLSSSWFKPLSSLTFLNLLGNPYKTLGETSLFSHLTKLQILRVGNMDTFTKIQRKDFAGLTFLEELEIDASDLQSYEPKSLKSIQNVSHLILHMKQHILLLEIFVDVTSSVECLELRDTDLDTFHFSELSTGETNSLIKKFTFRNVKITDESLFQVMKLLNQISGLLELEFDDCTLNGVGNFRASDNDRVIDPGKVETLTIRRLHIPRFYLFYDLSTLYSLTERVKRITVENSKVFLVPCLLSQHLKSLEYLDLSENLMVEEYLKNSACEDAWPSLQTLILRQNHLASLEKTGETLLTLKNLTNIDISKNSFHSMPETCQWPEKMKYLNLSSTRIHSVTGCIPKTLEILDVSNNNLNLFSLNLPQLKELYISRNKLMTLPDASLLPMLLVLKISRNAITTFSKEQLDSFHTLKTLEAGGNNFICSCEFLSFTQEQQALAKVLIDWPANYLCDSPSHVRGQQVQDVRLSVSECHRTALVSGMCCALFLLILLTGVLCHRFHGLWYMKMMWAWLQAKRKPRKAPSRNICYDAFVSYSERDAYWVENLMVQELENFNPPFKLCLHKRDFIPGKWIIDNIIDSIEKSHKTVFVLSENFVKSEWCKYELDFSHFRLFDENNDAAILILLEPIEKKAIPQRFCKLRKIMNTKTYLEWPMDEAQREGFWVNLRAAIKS
Method in brief: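 Read-out: SEAP colour change, A600, after overnight agonist exposure. Cells: HEK-293 overexpressing TLR2, NF-kB-SEAP reporter, ~40,000/well, plated 16-24 h prior.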

T1 sequence (Q9QUN7 25-784): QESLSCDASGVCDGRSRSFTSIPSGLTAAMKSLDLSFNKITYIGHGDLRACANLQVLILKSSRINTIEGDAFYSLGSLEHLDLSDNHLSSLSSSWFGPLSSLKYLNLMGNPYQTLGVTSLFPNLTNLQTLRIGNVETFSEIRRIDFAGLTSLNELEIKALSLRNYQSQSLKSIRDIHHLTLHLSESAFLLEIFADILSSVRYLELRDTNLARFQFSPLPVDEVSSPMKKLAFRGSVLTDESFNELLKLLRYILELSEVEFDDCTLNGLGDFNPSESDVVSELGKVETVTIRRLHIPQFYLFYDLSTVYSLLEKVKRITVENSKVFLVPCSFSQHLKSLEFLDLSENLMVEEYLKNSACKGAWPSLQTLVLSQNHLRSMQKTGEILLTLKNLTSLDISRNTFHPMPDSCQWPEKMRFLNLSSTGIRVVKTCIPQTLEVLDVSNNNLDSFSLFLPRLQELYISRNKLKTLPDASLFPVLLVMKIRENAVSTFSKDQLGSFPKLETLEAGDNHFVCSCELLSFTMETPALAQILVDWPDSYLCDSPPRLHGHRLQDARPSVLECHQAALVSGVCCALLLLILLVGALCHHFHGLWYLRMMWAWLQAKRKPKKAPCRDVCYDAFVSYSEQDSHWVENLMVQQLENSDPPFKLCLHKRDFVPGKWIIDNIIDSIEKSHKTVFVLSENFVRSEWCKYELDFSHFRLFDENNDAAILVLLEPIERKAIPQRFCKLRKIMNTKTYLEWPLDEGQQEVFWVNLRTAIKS

| EC50 (TLR2 [1]) [nM] | EC50 (TLR2 [2]; average of all runs (Table 4)) [nM] | EC50 (TLR2 [2]; average of all runs (Table 3)) [nM] | SMILES |
| --- | --- | --- | --- |
| > 1000 | 0.1 to 50 |  | CCCCCCCCCCCCCOC(=O)N[C@H]1CN(C(=O)c2ccc(C(=O)N3C[C@@H](C(=O)N[C@H]4C[C@@H]4c4ccccc4)[C@H](C(=O)N[C@H]4C[C@@H]4c4ccccc4)C3)cc2)C[C@@H]1OC [Compound 217, tridecyl ((3S,4S)-1-(4-((3S,4S)-3,4-bis(((1S,2R)-2-phenylcyclopropyl)carbamoyl)pyrrolidine-1-carbonyl)benzoyl)-4-methoxypyrrolidin-3-yl)carbamate] |
| 0.1 to 50 | 0.1 to 50 |  | CCCCCCNC(=O)[C@H](Cn1cc(-c2ccc(C(=O)N3C[C@@H](C(=O)N[C@H]4C[C@@H]4c4ccccc4)[C@H](C(=O)N[C@H]4C[C@@H]4c4ccccc4)C3)cc2)nn1)NC(=O)CCCCCC [Compound 185, (3S,4S)-1-(4-(1-((S)-2-heptanamido-3-(hexylamino)-3-oxopropyl)-1H-1,2,3-triazol-4-yl)benzoyl)-N3,N4-bis((1S,2R)-2-phenylcyclopropyl)pyrrolidine-3,4-dicarboxamide] |
| 0.1 to 50 | 51 to 350 |  | CCCCCCNC(=O)[C@H](Cn1cnc(-c2ccc(C(=O)N3C[C@@H](C(=O)N[C@H]4C[C@@H]4c4ccccc4)[C@H](C(=O)N[C@H]4C[C@@H]4c4ccccc4)C3)cc2)c1)NC(=O)CCCCCC [Compound 214, (3S,4S)-1-(4-(1-((S)-2-heptanamido-3-(hexylamino)-3-oxopropyl)-1H-imidazol-4-yl)benzoyl)-N3,N4-bis((1S,2R)-2-phenylcyclopropyl)pyrrolidine-3,4-dicarboxamide] |
| > 1000 | > 1000 |  | CCCCCCCCCCCCCNC(=O)N[C@@H](CNC(=O)c1ccc(C(=O)N2C[C@@H](C(=O)N[C@H]3C[C@@H]3c3ccccc3)[C@H](C(=O)N[C@H]3C[C@@H]3c3ccccc3)C2)cc1)COC [Compound 198, (3S,4S)-1-(4-(((S)-3-methoxy-2-(3-tridecylureido)propyl)carbamoyl)benzoyl)-N3,N4-bis((1S,2R)-2-phenylcyclopropyl)pyrrolidine-3,4-dicarboxamide] |
| > 1000 | 0.1 to 50 |  | CCCCCCCCCCCCCCC(=O)N[C@@H]1CCCN(C(=O)c2ccc(C(=O)N3C[C@@H](C(=O)N[C@H]4C[C@@H]4c4ccccc4)[C@H](C(=O)N[C@H]4C[C@@H]4c4ccccc4)C3)cc2)C1 [Compound 152, (3S,4S)-1-(4-((R)-3-pentadecanamidopiperidine-1-carbonyl)benzoyl)-N3,N4-bis((1S,2R)-2-phenylcyclopropyl)pyrrolidine-3,4-dicarboxamide] |
| 51 to 350 | 0.1 to 50 |  | CCCCCCCNC(=O)[C@H](CNC(=O)c1ccc(C(=O)N2C[C@@H](C(=O)N[C@H]3C[C@@H]3c3ccccc3)[C@H](C(=O)N[C@H]3C[C@@H]3c3ccccc3)C2)cc1)NC(=O)CCCCCCC [Compound 184, (3S,4S)-1-(4-(((S)-3-(heptylamino)-2-octanamido-3-oxopropyl)carbamoyl)benzoyl)-N3,N4-bis((1S,2R)-2-phenylcyclopropyl)pyrrolidine-3,4-dicarboxamide] |
| > 1000 | 0.1 to 50 |  | CCCCCCCCCCCCCCC(=O)N[C@@H]1CN(C(=O)c2ccc(C(=O)N3C[C@@H](C(=O)N[C@H]4C[C@@H]4c4ccccc4)[C@H](C(=O)N[C@H]4C[C@@H]4c4ccccc4)C3)cc2)C[C@@H]1OC [Compound 209, (3S,4S)-1-(4-((3S,4R)-3-methoxy-4-pentadecanamidopyrrolidine-1-carbonyl)benzoyl)-N3,N4-bis((1S,2R)-2-phenylcyclopropyl)pyrrolidine-3,4-dicarboxamide] |
| > 1000 | 0.1 to 50 |  | CCCCCCCCCCCCCNC(=O)N[C@@H]1CCCN(C(=O)c2ccc(C(=O)N3C[C@@H](C(=O)N[C@H]4C[C@@H]4c4ccccc4)[C@H](C(=O)N[C@H]4C[C@@H]4c4ccccc4)C3)cc2)C1 [Compound 205, (3S,4S)—N3,N4-bis((1S,2R)-2-phenylcyclopropyl)-1-(4-((R)-3-(3-tridecylureido)piperidine-1-carbonyl)benzoyl)pyrrolidine-3,4-dicarboxamide] |
| 51 to 350 | 0.1 to 50 |  | CCCCCCCCCC(=O)N[C@@H](Cn1cc(-c2ccc(C(=O)N3C[C@@H](C(=O)N[C@H]4C[C@@H]4c4ccccc4)[C@H](C(=O)N[C@H]4C[C@@H]4c4ccccc4)C3)cc2)nn1)C(=O)NCCCCCC [Compound 213, (3S,4S)-1-(4-(1-((S)-2-decanamido-3-(hexylamino)-3-oxopropyl)-1H-1,2,3-triazol-4-yl)benzoyl)-N3,N4-bis((1S,2R)-2-phenylcyclopropyl)pyrrolidine-3,4-dicarboxamide] |
| > 1000 | 0.1 to 50 |  | CCCCCCCCCCCCCCNC(=O)N[C@@H]1CCCN(C(=O)c2ccc(C(=O)N3C[C@@H](C(=O)N[C@H]4C[C@@H]4c4ccccc4)[C@H](C(=O)N[C@H]4C[C@@H]4c4ccccc4)C3)cc2)C1 [Compound 206, (3S,4S)—N3,N4-bis((1S,2R)-2-phenylcyclopropyl)-1-(4-((R)-3-(3-tetradecylureido)piperidine-1-carbonyl)benzoyl)pyrrolidine-3,4-dicarboxamide] |
| 51 to 350 | 0.1 to 50 |  | CCCCCCCCCCCNC(=O)N[C@H]1CN(C(c2ccc(C(=O)N3C[C@@H](C(=O)N[C@H]4C[C@@H]4c4ccccc4)[C@H](C(=O)N[C@H]4C[C@@H]4c4ccccc4)C3)cc2)C(F)(F)F)C[C@@H]1OC (single isomer, unassigned) [Compound 231, (3S,4S)—N3,N4-bis((1S,2R)-2-phenylcyclopropyl)-1-(4-((S*)-2,2,2-trifluoro-1-((3S,4S)-3-methoxy-4-(3-undecylureido)pyrrolidin-1-yl)ethyl)benzoyl)pyrrolidine-3,4-dicarboxamide] |
| > 1000 | 0.1 to 50 |  | CCCCCCNC(=O)[C@H](CNC(=O)c1ccc(C(=O)N2C[C@@H](C(=O)N[C@H]3C[C@@H]3c3ccccc3)[C@H](C(=O)N[C@H]3C[C@@H]3c3ccccc3)C2)cc1)NC(=O)Cc1ccc(F)cc1 [Compound 138, (3S,4S)-1-(4-(((S)-2-(2-(4-fluorophenyl)acetamido)-3-(hexylamino)-3-oxopropyl)carbamoyl)benzoyl)-N3,N4-bis((1S,2R)-2-phenylcyclopropyl) pyrrolidine-3,4-dicarboxamide] |
| 351 to 1000 | 0.1 to 50 |  | CCCCCCCCCCCCCNC(=O)N[C@H]1CN(C(=O)c2ccc(C(=O)N3C[C@@H](C(=O)N[C@H]4C[C@@H]4c4ccccc4)[C@H](C(=O)N[C@H]4C[C@@H]4c4ccccc4)C3)cc2)C[C@@H]1OC [Compound 134, (3S,4S)-1-(4-((3S,4S)-3-methoxy-4-(3-tridecylureido)pyrrolidine-1-carbonyl)benzoyl)-N3,N4-bis((1S,2R)-2-phenylcyclopropyl)pyrrolidine-3,4-dicarboxamide] |
|  |  | 351 to 1000 | CCCCCCCCCCCCCCNC(=O)[C@@H]1CN(C(=O)c2ccc(C(=O)N3C[C@@H](C(=O)N[C@H]4C[C@@H]4c4ccccc4)[C@H](C(=O)N[C@H]4C[C@@H]4c4ccccc4)C3)cc2)CCN1C [Compound 069, (3S,4S)-1-(4-((S)-4-methyl-3-(tetradecylcarbamoyl)piperazine-1-carbonyl)benzoyl)-N3,N4-bis ((1S,2R)-2-phenylcyclopropyl) pyrrolidine-3,4-dicarboxamide formate] |

Reference: US11951094B2, “TLR2 modulator compounds, pharmaceutical compositions and uses thereof” (Axial Therapeutics, Inc., priority 2020, dated 2024)
